Reference: publication PMC11861159, “Design, synthesis, and in vitro, in vivo, and in silico evaluation of novel substituted 1,3,4-thiadiazole derivatives as anticonvulsant agents” (Frontiers in Chemistry, 2025)

Tests used:
PTZ-induced seizures = experiment: Subcutaneous pentylenetetrazole (sc-PTZ) test; type: in vivo, male Swiss albino mice; conditions: for Minimum active dose (mg/kg) Sc-PTZ 0.5 h / Minimum active dose (mg/kg) Sc-PTZ 4 h: oral, lowest dose active in half or more of the mice, n = 6;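 as to % protection Sc-PTZ 0.5 h: percent reduction of the test group versus the control group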;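 as to % protection Sc-PTZ 4 h: percent reduction of the test group versus the control group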
induced seizures = experiment: Anticonvulsant screening (MES and sc-PTZ), outcome recovery/death
Method: The test compounds and the standard drugs were dissolved in a 0.9% NaCl solution.
After half an hour of p.o. administration of the standard and the tested compounds, an electro-convulsometer (Outus, Ambala Cantt, India) delivered an electrical stimulus of sufficient intensity (25 mA, 500 V, 50 Hz, 0.2 s) via auricular electrodes to induce maximal seizures (Figure 1). To avoid the animal’s death, a drop of 0.9% saline was injected into the eye before the insertion of the electrodes. The tonic hind limb extension (i.e., the hind limbs of the animals outstretched 180° to the plane of the body axis) served as the basic principle for the occurrence of seizure activity. Abolition of the hind limb tonic extensor (HLTE) component of the seizure is defined as protection.

[1] = biological target: T1, human carbonic anhydrase II (Homo sapiens, UniProt P00918); experiment: Human carbonic anhydrase II colorimetric (p-nitrophenyl acetate) inhibition assay; type: biochemical; conditions: mean ± SEM, three independent experiments in triplicate; read-out: CA II (IC50)
T1 construct: purchased Sino Biological Inc, Beijing, China
Method: (§1) In brief, the reaction mixture contained 60 μL of 50 mM Tris-sulfate buffer (pH 7.6, containing 0.1 mM ZnCl2),10 μL (0.5 mM) of the test compound in 1% DMSO, and 10 μL of human carbonic anhydrase II and IX (Sino Biological Inc, Beijing, China). All the ingredients were mixed well and pre-incubated at 25°C for 10 min. Substrate p-nitrophenyl acetate was prepared as a 6 mM stock solution using 5% of acetonitrile in buffer and was used fresh. […] The total assay volume was adjusted to 100 μL and further incubated at 37°C for 30 min. Furthermore, all the ingredients were mixed properly, and absorbance was measured. […] The results reported are the mean of triplicate experiments (±SEM) and expressed IC50 values, which were calculated.

glutathione (GSH) = experiment: Reduced glutathione level in brain of PTZ-treated mice; type: in vivo; conditions: compared to pentylenetetrazole-treated group, n = 6
Method: (§2) Brain tissue homogenates were prepared by isolating the brain (tissue) from the mice. Animals were euthanized under anesthesia by ketamine (80 mg/kg) and xylazine (5 mg/kg) after 8 h of inducing test and standard compounds. Mice’s brains (tissue) were quickly removed and weighed, and the whole brain samples were washed twice with ice-cold saline solution before being deposited in glass vials, labeled, and stored in a deep freeze (−30°C) until further use. Brain tissue samples were homogenized with a glass handheld homogenizer (PTFE coated). Tissue homogenates (10% w/v) were prepared in cold 0.1 M phosphate buffer (pH adjusted to 7.4) using a homogenizer. To test biological parameters, the supernatant from homogenates was centrifuged at 12,000 rpm for 20 min at 4°C.
The quantity of glutathione (GSH) in the brain was determined using the Sedlak and Lindsay method ([Pant et al., 2023]). In brief, brain tissue was deproteinized with an equal amount of 10% TCA and left at 4°C for 2 h. The contents were centrifuged for 15 min at 1200 rpm. The supernatant was mixed with 2 mL of 0.4 M Tris buffer (pH 8.9) containing 0.02 M EDTA (pH 8.9), and then 0.01 M DTNB was added. Finally, the mixture was diluted with 0.5 mL of distilled water to make a total volume of 3 mL, and absorbance was measured using a spectrophotometer at 412 nm, with results expressed as mg GSH/gm tissue.

[2] = system: total antioxidant capacity (TAC); experiment: Total antioxidant capacity (FRAP) in brain tissue of PTZ-treated mice; type: in vivo; conditions: compared to pentylenetetrazole-treated group, n = 6
Method: as §2
Total antioxidant capacity (TAC) was measured by mixing 200 μL of tissue samples with 3 mL of ferric-reducing antioxidant power (FRAP) reagent in a vortex. After incubating samples and blank tubes in a water bath for 30 min at 37°C, the absorbance of the samples was measured at 593 nm. For the standard curve, a stock solution of FeSO4.7H2O in distilled water was produced. Stock solution concentrations were 200, 400, 800, 1200, and 1600 μM. The curve results were given as mM of ferrous sulfate equivalent Fe2+/L ([Sun et al., 1988]).

MES-induced seizures = experiment: Maximal electroshock-induced seizure (MES) test; type: in vivo, male Swiss albino mice; conditions: for Minimum active dose (mg/kg) MES 0.5 h / Minimum active dose (mg/kg) MES 4 h: oral, lowest dose active in half or more of the mice, n = 6;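 as to % protection MES 0.5 h: percent reduction of the test group versus the control group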;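 as to % protection MES 4 h: percent reduction of the test group versus the control group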
GABA level = experiment: Estimation of brain GABA level; type: in vivo, mice; conditions: 30 mg/kg p.o., 2 h after administration, compared to pentylenetetrazole-treated group
Method: as §2, with “Animals were euthanized under anesthesia by ketamine (80 mg/kg) and xylazine (5 mg/kg) after 8 h of inducing test and standard compounds.” left out
The supernatant was put on silica gel 60 F254 aluminum sheets (10 cm × 10 cm) as the stationary phase, with the mobile phase consisting of water-saturated phenol. Prior to chromatography, TLC plates were prewashed with methanol and activated in an oven at 50°C for 5 min. The 0.1 mL supernatant solutions were applied in the form of bands on TLC plates. At room temperature, ascending development was carried out in a glass chamber saturated with the mobile phase for 30 min until a length of 80 mm was reached. The TLC plates that had been created were air-dried and treated with ninhydrin. […] The method’s specificity was determined by obtaining standard GABA samples and comparing their Rf values. […]

nitric oxide (NO) = experiment: Nitrite/NO level (Greiss reagent) in brain homogenate of PTZ-treated mice; type: in vivo; conditions: brain supernatant, compared to pentylenetetrazole-treated group, n = 6
Method: as §2
Greiss reagent, a solution of 0.5% sulfonamide, 2.5% phosphoric acid, and 0.05% naphthyl ethylenediamine, was used to measure nitric oxide (NO) in TSH. Greiss reagent and TSH absorbance were measured at 540 nm, and the sodium nitrite standard curve was used to calculate the quantity of nitrite ([Wills, 1996]; [Green et al., 1982]).

mice = experiment: Rotarod neurotoxicity screening; type: in vivo, male Swiss albino mice; conditions: for Neurotoxicity (rotarod test), result in words: at the highest dose (300 mg/kg); for Neurotoxicity dose (mg/kg) 0.5 h / Neurotoxicity dose (mg/kg) 4 h: rotarod, oral doses 30, 100, 300 mg/kg
Method: The rotarod test, as described in the literature, was used to evaluate neurotoxicity (NT) in mice. In brief, six mice (one group) were trained to balance on a spinning rod (3 cm diameter and 6 rpm speed) to familiarize with the rotarod apparatus (Orchid Scientific, India). Each mouse underwent three trials to remain on the rotating rod for over 1 minute, with the experiment’s cutoff time (180 s) remaining constant. Different pre-oral (p.o.) doses of test and standard substances were administered to the trained animals.

[3] = biological target: T2, human carbonic anhydrase IX (Homo sapiens, UniProt Q16790); experiment: Human carbonic anhydrase IX colorimetric (p-nitrophenyl acetate) inhibition assay; type: biochemical; conditions: mean ± SEM, three independent experiments in triplicate; read-out: CA IX (IC50)
T2 construct: purchased Sino Biological Inc, Beijing, China
Method: as §1

[4] = system: superoxide dismutase (SOD); experiment: Superoxide dismutase activity in brain homogenate of PTZ-treated mice; type: in vivo; conditions: compared to PTZ-administered group, n = 6
Method: as §2
Sun et al.'s approach ([…]) was used to determine Cu, Zn-SOD activity. An oxidase complex ([…]) generates superoxide radicals, which react with NBT to yield the formazan molecule in this process. In brief, a reactive was created by combining 0.1 mM xanthine, 0.1 mM EDTA, 50 mg bovine serum albumin, 25 mM NBT, and 40 mM Na2CO3 (pH 10.2). […] The sample’s absorbance was measured at 560 nm. […] The quantity of the enzyme that blocked NBT conversion to formazan by 50% was determined as one unit of SOD activity. SOD activity was measured in units per milligram of protein.

SMILES: CCN(CC)CCOc1cccc(C(=O)Nc2nncs2)c1 [Compound 6d, 3-(2-(diethylamino)ethoxy)-N-(1,3,4-thiadiazol-2-yl)benzamide]
- % protection Sc-PTZ 0.5 h (PTZ-induced seizures; 30 mg/kg oral): 38.59%
- % protection Sc-PTZ 4 h (PTZ-induced seizures; 30 mg/kg oral): 46.34%
- % protection Sc-PTZ 0.5 h (PTZ-induced seizures; 100 mg/kg oral): 58.30%
- % protection Sc-PTZ 4 h (PTZ-induced seizures; 100 mg/kg oral): 66.34%
- % protection Sc-PTZ 0.5 h (PTZ-induced seizures; 300 mg/kg oral): 70.4%
- % protection Sc-PTZ 4 h (PTZ-induced seizures; 300 mg/kg oral): 82.88%
- Minimum active dose (mg/kg) Sc-PTZ 0.5 h (PTZ-induced seizures): 30 mg/kg
- Minimum active dose (mg/kg) Sc-PTZ 4 h (PTZ-induced seizures): 30 mg/kg
- Recovery/death (induced seizures; 30 mg/kg oral): Recovery
- Recovery/death (induced seizures; 100 mg/kg oral): Recovery
- Recovery/death (induced seizures; 300 mg/kg oral): Recovery
- IC50 [1]: 0.08 ± 0.05 µM
- GSH level (glutathione (GSH)): significant increase in GSH levels
- TAC level (FRAP) [2]: significant increase in TAC levels
- % protection MES 0.5 h (MES-induced seizures; 30 mg/kg oral): 38.96%
- % protection MES 4 h (MES-induced seizures; 30 mg/kg oral): 41.53%
- % protection MES 0.5 h (MES-induced seizures; 100 mg/kg oral): 55.38%
- % protection MES 4 h (MES-induced seizures; 100 mg/kg oral): 60%
- % protection MES 0.5 h (MES-induced seizures; 300 mg/kg oral): 72.30%
- % protection MES 4 h (MES-induced seizures; 300 mg/kg oral): 89.46%
- Minimum active dose (mg/kg) MES 0.5 h (MES-induced seizures): 30 mg/kg
- Minimum active dose (mg/kg) MES 4 h (MES-induced seizures): 30 mg/kg
- GABA level in the brain (GABA level): significant increase in GABA levels
- NO (nitrite) level (nitric oxide (NO)): significantly reduced NO levels
- Neurotoxicity (rotarod test), result in words (mice): without any sign of neurotoxicity
- Neurotoxicity dose (mg/kg) 0.5 h (mice): - (The indication - (dash) denotes a lack of action at the maximum dose supplied (300 mg/kg))
- Neurotoxicity dose (mg/kg) 4 h (mice): - (The indication - (dash) denotes a lack of action at the maximum dose supplied (300 mg/kg))
- IC50 [3]: 0.1 ± 0.02 µM
- SOD activity [4]: significant increase in SOD activity

SMILES: CCN(CC)CCOc1cc(C(=O)Nc2nncs2)ccc1OC [Compound 7d, 4-Methoxy-3-(2-(diethylamino)ethoxy)-N-(1,3,4-thiadiazol-2-yl)benzamide]
- % protection Sc-PTZ 0.5 h (PTZ-induced seizures; 30 mg/kg oral): 42.43%
- % protection Sc-PTZ 0.5 h (PTZ-induced seizures; 100 mg/kg oral): 53.27%
- % protection Sc-PTZ 4 h (PTZ-induced seizures; 100 mg/kg oral): 62.85%
- % protection Sc-PTZ 0.5 h (PTZ-induced seizures; 300 mg/kg oral): 61.46%
- % protection Sc-PTZ 4 h (PTZ-induced seizures; 300 mg/kg oral): 75.18%
- Minimum active dose (mg/kg) Sc-PTZ 0.5 h (PTZ-induced seizures): 30 mg/kg
- Minimum active dose (mg/kg) Sc-PTZ 4 h (PTZ-induced seizures): 100 mg/kg
- Recovery/death (induced seizures; 30 mg/kg oral): Recovery
- Recovery/death (induced seizures; 100 mg/kg oral): Recovery
- Recovery/death (induced seizures; 300 mg/kg oral): Recovery
- IC50 [1]: 0.48 ± 0.04 µM
- GSH level (glutathione (GSH)): significant increase in GSH levels
- TAC level (FRAP) [2]: significant increase in TAC levels
- % protection MES 0.5 h (MES-induced seizures; 30 mg/kg oral): 30.76%
- % protection MES 4 h (MES-induced seizures; 30 mg/kg oral): 40%
- % protection MES 0.5 h (MES-induced seizures; 100 mg/kg oral): 41.53%
- % protection MES 4 h (MES-induced seizures; 100 mg/kg oral): 63.07%
- % protection MES 0.5 h (MES-induced seizures; 300 mg/kg oral): 61.53%
- % protection MES 4 h (MES-induced seizures; 300 mg/kg oral): 76.92%
- Minimum active dose (mg/kg) MES 0.5 h (MES-induced seizures): 30 mg/kg
- Minimum active dose (mg/kg) MES 4 h (MES-induced seizures): 30 mg/kg
- GABA level in the brain (GABA level): significant increase in GABA levels
- NO (nitrite) level (nitric oxide (NO)): significantly reduced NO levels
- Neurotoxicity (rotarod test), result in words (mice): without any sign of neurotoxicity
- Neurotoxicity dose (mg/kg) 0.5 h (mice): - (The indication - (dash) denotes a lack of action at the maximum dose supplied (300 mg/kg))
- Neurotoxicity dose (mg/kg) 4 h (mice): - (The indication - (dash) denotes a lack of action at the maximum dose supplied (300 mg/kg))
- IC50 [3]: 0.28 ± 0.03 µM

SMILES: COc1ccc(C(=O)Nc2nncs2)cc1OCCN(C)C [Compound 7e, 4-Methoxy-3-(2-(dimethylamino)ethoxy)-N-(1,3,4-thiadiazol-2-yl)benzamide]
- % protection Sc-PTZ 0.5 h (PTZ-induced seizures; 30 mg/kg oral): 34.26%
- % protection Sc-PTZ 0.5 h (PTZ-induced seizures; 100 mg/kg oral): 43.07%
- % protection Sc-PTZ 4 h (PTZ-induced seizures; 100 mg/kg oral): 61.04%
- % protection Sc-PTZ 0.5 h (PTZ-induced seizures; 300 mg/kg oral): 60%
- % protection Sc-PTZ 4 h (PTZ-induced seizures; 300 mg/kg oral): 67.81%
- Minimum active dose (mg/kg) Sc-PTZ 0.5 h (PTZ-induced seizures): 30 mg/kg
- Minimum active dose (mg/kg) Sc-PTZ 4 h (PTZ-induced seizures): 100 mg/kg
- Recovery/death (induced seizures; 30 mg/kg oral): Recovery
- Recovery/death (induced seizures; 100 mg/kg oral): Recovery
- Recovery/death (induced seizures; 300 mg/kg oral): Recovery
- IC50 [1]: 0.53 ± 0.03 µM
- % protection MES 0.5 h (MES-induced seizures; 30 mg/kg oral): 36.92%
- % protection MES 0.5 h (MES-induced seizures; 100 mg/kg oral): 43.07%
- % protection MES 4 h (MES-induced seizures; 100 mg/kg oral): 58.46%
- % protection MES 0.5 h (MES-induced seizures; 300 mg/kg oral): 60%
- % protection MES 4 h (MES-induced seizures; 300 mg/kg oral): 72.30%
- Minimum active dose (mg/kg) MES 0.5 h (MES-induced seizures): 30 mg/kg
- Minimum active dose (mg/kg) MES 4 h (MES-induced seizures): 100 mg/kg
- Neurotoxicity dose (mg/kg) 0.5 h (mice): - (The indication - (dash) denotes a lack of action at the maximum dose supplied (300 mg/kg))
- Neurotoxicity dose (mg/kg) 4 h (mice): - (The indication - (dash) denotes a lack of action at the maximum dose supplied (300 mg/kg))
- IC50 [3]: 0.61 ± 0.02 µM
